Results: PMC11356900, “Synthesis, Structural Properties and Biological Activities of Novel Hydrazones of 2-, 3-, 4-Iodobenzoic Acid” (Molecules, 2024)
In brackets after ≈: the same amount, converted by molar mass. Like-named read-outs stand apart in the source and are kept apart here.

Key:
[1] = system: Bacillus subtilis ATCC 6633; experiment: Broth microdilution MIC/MBC; conditions: ATCC6633
[2] = system: Staphylococcus aureus ATCC 25923; experiment: Broth microdilution MIC/MBC; conditions: Staphylococcus aureus, ATCC25923
[3] = system: Staphylococcus aureus ATCC 43300; experiment: Broth microdilution MIC/MBC; conditions: ATCC43300 / MRSA
[4] = system: Bordetella bronchiseptica ATCC 4617; experiment: Broth microdilution MIC/MBC; conditions: ATCC4617
[5] = system: Pseudomonas aeruginosa ATCC 9027; experiment: Broth microdilution MIC/MBC; conditions: ATCC9027
[6] = system: Salmonella typhimurium ATCC 14028; experiment: Broth microdilution MIC/MBC; conditions: Salmonella enterica
[7] = system: Staphylococcus epidermidis ATCC 12228; experiment: Broth microdilution MIC/MBC; conditions: ATCC12228
Gram-positive bacteria = experiment: Broth microdilution, summary over reference Gram-positive bacteria; assay type: cell-based; conditions: for antibacterial activity in words: reference Gram-positive bacteria / studied bacteria
Excerpt: (§1) Procedures of in vitro antimicrobial assays are described in Supplementary Materials.
(§2) 2. Microbiology – in vitro antimicrobial activity assays […]
(§3) using the broth microdilution method according to the European Committee on Antimicrobial Susceptibility Testing (EUCAST) and Clinical and Laboratory Standards Institute guidelines against a panel of reference and clinical or saprophytic strains of mi croorganisms, including the Gram-positive bacteria: Staphylococcus aureus ATCC 43300 (Methi-cillin Resistant S. aureus – MRSA), Staphylococcus aureus ATCC 29213 (Methicillin Susceptible S. aureus – MSSA), Staph-ylococcus epidermidis ATCC 12228, Micrococcus luteus ATCC 10240, Bacillus subtilis ATCC 6633 and Bacillus cereus ATCC 10876), Gram-negative bacteria: Bordetella bronchiseptica ATCC 4617, Escherichia coli ATCC 25922, Klebsiella pneumoniae ATCC 13883, Proteus mirabilis ATCC 12453, Salmonella typhimurium ATCC 14028 and Pseudomonas aeruginosa ATCC 9027, and fungi belonging to yeasts: Candida albicans ATCC 10231, Candida albicans ATCC 2091, Candida parapsilosis ATCC 22019, Candida glabrata ATCC 90030 and Candida krusei ATCC 14243. The microorganisms belonging to ATCC originated from American Type Culture Collection, routinely used for the evaluation of antimicrobials. All the used microbial cultures were first subcultured on nutrient agar or Sabouraud agar at 35°C for 18-24 h or 30°C for 24-48 h for bacteria […]
(§4) The surface of Mueller-Hinton agar (for bacteria) and RPMI 1640 with MOPS (for fungi) were inoculated with the suspensions of bacterial or fungal species. Microbial suspensions were prepared in sterile saline with an optical density of McFarland standard scale 0.5. The samples containing the compounds were dissolved in dimethyl sulfoxide (DMSO).
(§5) Furthermore, the bacterial and fungal suspensions put onto the Petri dishes with solid media containing 2 mg/mL of the tested compounds followed were incubated at 37°C for 24h and 30°C for 48h for bacteria and fungi, respectively.
(§6) The inhibition of microbial growth was estimated comparing with a control culture prepared without any tested sam- […]
(§7) antifungal compounds, respectively.
(§8) Subsequently, MIC (Minimal Inhibitory Concentration) of the compounds was examined by the microdilution broth method, using their two-fold dilutions in Mueller-Hinton broth (for bacteria) and RPMI 1640 broth with MOPS (for fungi) prepared in the 96-well polystyrene plates. The final concentrations of the compounds ranged from 1000 to 0.488 µg/mL. Microbial suspensions were prepared in 0.85% NaCl with an optical density of 0.5 McFarland standard. Next each bacterial or fungal suspension was added per each well containing broth and various concentrations of the exam-ined compounds. After incubation, the MIC was assessed spectrophotometrically as the lowest concentration of the […]
(§9) Appropriate DMSO, growth and sterile controls were carried out. The medium with no tested substances was used as a control The MBC (Minimal Bactericidal Concentration) and MFC (Minimal Fungicidal Concentration) are defined as the lowest concentration of the compounds that is required to kill a particular bacterial or fungal species. The MBC/MFC was determined by removing the culture used for the MIC determination from each well and spotted onto the appro-priate agar medium. The plates were incubated under appropriate conditions for bacteria and fungi. The lowest com-pounds concentration with no visible growth observed was assessed as a bactericidal/fungicidal concentration. All the experiments were repeated three times and the representative data are presented.
(§10) 1. European Committee for Antimicrobial Susceptibility Testing (EUCAST) Determination of minimum inhibitory con-centrations (MICs) of antibacterial agents by broth dilution. EUCAST discussion document E. Dis 5.1. Clin. Microbiol.
(§11) 2. Clinical and Laboratory Standards Institute. Reference method for broth dilution antifungal susceptibility testing of […]

[8] = system: Proteus mirabilis ATCC 12453; experiment: Broth microdilution MIC/MBC; conditions: ATCC12453
[9] = system: Klebsiella pneumoniae ATCC 13883; experiment: Broth microdilution MIC/MBC; conditions: ATCC13883
[10] = system: Bacillus cereus ATCC 10876; experiment: Broth microdilution MIC/MBC; conditions: Bacillus cereus, ATCC10876
[11] = system: Staphylococcus aureus ATCC 29213; experiment: Broth microdilution MIC/MBC; conditions: ATCC29213
[12] = system: Candida glabrata ATCC 90030; experiment: Broth microdilution MIC/MFC; assay type: cell-based; conditions: Nakaseomyces glabratus; for MIC: ATCC90030, read-out: MIC
Excerpt: as §1, §2, §3, §4, §5, §6, §7, §8, §9, §10, §11

[13] = system: Candida krusei ATCC 14243; experiment: Broth microdilution MIC/MFC; assay type: cell-based; conditions: Pichia kudriavzevii; for MIC: ATCC14243, read-out: MIC
Excerpt: as §1, §2, §3, §4, §5, §6, §7, §8, §9, §10, §11

[14] = system: Candida albicans ATCC 2091; experiment: Broth microdilution MIC/MFC; assay type: cell-based; conditions: for MIC: ATCC2091, read-out: MIC
Excerpt: as §1, §2, §3, §4, §5, §6, §7, §8, §9, §10, §11

[15] = system: Candida albicans ATCC 10231; experiment: Broth microdilution MIC/MFC; assay type: cell-based; conditions: for MIC: ATCC10231, read-out: MIC
Excerpt: as §1, §2, §3, §4, §5, §6, §7, §8, §9, §10, §11

[16] = system: Candida parapsilosis ATCC 22019; experiment: Broth microdilution MIC/MFC; assay type: cell-based; conditions: Lodderomyces parapsilosis; for MIC: ATCC22019, read-out: MIC; for MFC: ATCC22019, read-out: MFC
Excerpt: as §1, §2, §3, §4, §5, §6, §7, §8, §9, §10, §11

[17] = system: Micrococcus luteus ATCC 10240; experiment: Broth microdilution MIC/MBC; conditions: Micrococcus luteus, ATCC10240
[18] = system: Escherichia coli ATCC 25922; experiment: Broth microdilution MIC/MBC; conditions: ATCC25922
Candida spp. = experiment: Broth microdilution, summary over reference yeasts; assay type: cell-based
Excerpt: as §1, §2, §3, §4, §5, §6, §7, §8, §9, §10, §11

[19] = range over the reference Candida spp. strains

For `CCOc1cccc(/C=N/NC(=O)c2cccc(I)c2)c1O` [Compound 18, N-[(3-ethoxy-2-hydroxyphenyl)methylidene]-3-iodobenzohydrazide], the melting point was 115 to 121 °C, the MBC [1] was > 1000 µg/mL and the MIC [1] was 62.5 µg/mL (≈ 152 µM). For the same compound, the MIC [2] was > 1000 µg/mL, the MIC [3] was > 1000 µg/mL and the MIC [4] was > 1000 µg/mL. For the same compound, the MIC [5] was > 1000 µg/mL, the MIC [6] was > 1000 µg/mL and the MBC [7] was > 1000 µg/mL. For the same compound, the MIC [7] was 500 µg/mL (≈ 1220 µM), the MIC (Gram-positive bacteria) was 31.2 to 1000 µg/mL (≈ 76.2 to 2440 µM) and the MIC [8] was > 1000 µg/mL. The MIC [9] was > 1000 µg/mL, the MIC [10] was > 1000 µg/mL and the MIC [11] was > 1000 µg/mL. For the same compound, the MIC [12] was > 1000 µg/mL, the MIC [13] was > 1000 µg/mL and the MIC [14] was > 1000 µg/mL. For the same compound, the MIC [15] was > 1000 µg/mL, the MIC [16] was > 1000 µg/mL and the MBC [17] was 250 µg/mL (≈ 609 µM). For the same compound, the MIC [17] was 31.2 µg/mL (≈ 76.2 µM) and the MIC [18] was > 1000 µg/mL.
With `O=C(N/N=C/c1cc(O)ccc1O)c1cccc(I)c1` [Compound 19, N-[(2,5-dihydroxyphenyl)methylidene]-3-iodobenzohydrazide] the MFC/MIC (Candida spp.; [19]) was > 4, the MIC (Candida spp.; [19]) was 125 to 500 µg/mL (≈ 327 to 1310 µM) and the “antifungal activity in words” value (Candida spp.; reference yeasts from Candida spp.) was “good and moderate”. For the same compound, the melting point was 220 to 224 °C, the MIC [1] was > 1000 µg/mL and the MIC [2] was > 1000 µg/mL. For the same compound, the MIC [3] was > 1000 µg/mL, the MIC [4] was > 1000 µg/mL and the MIC [5] was > 1000 µg/mL. The MIC [6] was > 1000 µg/mL, the MIC [7] was > 1000 µg/mL and the “antibacterial activity in words” value (Gram-positive bacteria) was “no activity”. The MIC [8] was > 1000 µg/mL, the MIC [9] was > 1000 µg/mL and the MIC [10] was > 1000 µg/mL. For the same compound, the MIC [11] was > 1000 µg/mL, the MFC ([12]; ATCC90030, read-out: MFC) was > 1000 µg/mL and the MIC [12] was 500 µg/mL (≈ 1310 µM). The MFC ([13]; ATCC14243, read-out: MFC) was > 1000 µg/mL, the MIC [13] was 250 µg/mL (≈ 654 µM) and the MFC ([14]; ATCC2091, read-out: MFC) was > 1000 µg/mL. The MIC [14] was 500 µg/mL (≈ 1310 µM), the MFC ([15]; ATCC10231, read-out: MFC) was > 1000 µg/mL and the MIC [15] was 250 µg/mL (≈ 654 µM). The MFC [16] was > 1000 µg/mL, the MIC [16] was 125 µg/mL (≈ 327 µM) and the MIC [17] was > 1000 µg/mL. For the same compound, the MIC [18] was > 1000 µg/mL.
With `O=C(N/N=C/c1ccccc1O)c1ccc(I)cc1` [Compound 23, N-[(2-hydroxyphenyl)methylidene]-4-iodobenzohydrazide] the melting point was 195 to 205 °C, the MBC [1] was > 1000 µg/mL and the MIC [1] was 1000 µg/mL (≈ 2730 µM). The MBC [2] was > 1000 µg/mL, the MIC [2] was 1000 µg/mL (≈ 2730 µM) and the MBC [3] was > 1000 µg/mL. The MIC [3] was 500 µg/mL (≈ 1370 µM), the MIC [4] was > 1000 µg/mL and the MIC [5] was > 1000 µg/mL. The MIC [6] was > 1000 µg/mL, the MBC [7] was > 1000 µg/mL and the MIC [7] was 1000 µg/mL (≈ 2730 µM). For the same compound, the MBC (Gram-positive bacteria; range over the reference Gram-positive bacteria, read-out: MBC) was > 1000 µg/mL, the MIC (Gram-positive bacteria; range over the reference Gram-positive bacteria, read-out: MIC) was 500 to 1000 µg/mL (≈ 1370 to 2730 µM) and the “antibacterial activity in words” value (Gram-positive bacteria) was “moderate or mild”. For the same compound, the MIC [8] was > 1000 µg/mL, the MIC [9] was > 1000 µg/mL and the MBC [10] was > 1000 µg/mL. The MIC [10] was 1000 µg/mL (≈ 2730 µM), the MBC [11] was > 1000 µg/mL and the MIC [11] was 500 µg/mL (≈ 1370 µM). The MIC [12] was > 1000 µg/mL, the MIC [13] was > 1000 µg/mL and the MIC [14] was > 1000 µg/mL. For the same compound, the MIC [15] was > 1000 µg/mL, the MFC [16] was > 1000 µg/mL and the MIC [16] was 1000 µg/mL (≈ 2730 µM). The MBC [17] was > 1000 µg/mL, the MIC [17] was 500 µg/mL (≈ 1370 µM) and the MIC [18] was > 1000 µg/mL.
